Test results reported in ChEMBL document CHEMBL4680246, “Design, synthesis and biological evaluation of novel O-carbamoyl ferulamide derivatives as multi-target-directed ligands for the treatment of Alzheimer's disease” (Eur J Med Chem, 2020).
Calls of active or inactive are those of the source. The calls are words filed in the database; no cut-off is given here.

Legend:
Danio rerio [1] = species on record: Danio rerio; assay: Antialzheimer activity in AlCl3-induced Zebrafish model of Alzheimer's disease assessed as increase in motility speed at 0.33 ug/ml relative to control; type: functional; conditions: dose 0.33 µg/ml
Danio rerio [2] = species on record: Danio rerio; assay: Antialzheimer activity in AlCl3-induced Zebrafish model of Alzheimer's disease assessed as motility distance at 0.33 ug/ml (reference value: 5346 mm); type: functional; conditions: dose 0.33 µg/ml
Cholinesterase [3] = target: T1, Cholinesterase (Homo sapiens, UniProt P06276); assay: Inhibition of human serum BuChE using acetylcholine iodide as substrate incubated for 15 mins by Ellman's method
Danio rerio [4] = species on record: Danio rerio; assay: Antialzheimer activity in AlCl3-induced Zebrafish model of Alzheimer's disease assessed as motility distance at 1 ug/ml (reference value: 5346 mm); type: functional; conditions: dose 1 µg/ml
[5] = Drug metabolism in rat liver microsomes by HPLC analysis; type: ADME, Microsome
[6] = Effect on APP protein level in mouse HT22 cells transfected with pEGFP-N1-APP plasmid assessed as fluorescence intensity at 5 uM by fluorescence microscopy (reference value: 33.2); type: functional, HT-22
Homo sapiens = species on record: Homo sapiens; assay: Selectivity index, ratio of IC50 for human erythrocytes Ache to IC50 for human serum BuChe
[7] = Cytotoxicity against human LO2 cells assessed as cell viability at 50 uM by MTT assay relative to control; type: cell-based, L02; conditions: read-out: Activity
[8] = Effect on APP protein level in mouse HT22 cells transfected with pEGFP-N1-APP plasmid assessed as fluorescence intensity at 2.5 uM by fluorescence microscopy (reference value: 33.2); type: functional, HT-22
Danio rerio [9] = species on record: Danio rerio; assay: Antialzheimer activity in AlCl3-induced Zebrafish model of Alzheimer's disease assessed as change in motility speed at […] (reference value: 1.08 mm/s); type: functional; conditions: dose 0.11 µg/ml
[10] = Effect on tau protein level in mouse HT22 cells transfected with pRK5-GFP-Tau P301L plasmid assessed as fluorescence intensity at 5 uM by fluorescence microscopy (reference value: 33.6); type: functional, HT-22
[11] = Acute toxicity in Kunming mouse assessed as damage in kidney at 50 to 1000 mg/kg measured after 7 days; type: organism-based; conditions: in vivo, 168 h, dose 50-1000 mg/kg, time 7 day
[12] = Acute toxicity in Kunming mouse assessed as damage in heart at 50 to 1000 mg/kg measured after 7 days; type: organism-based; conditions: in vivo, 168 h, dose 50-1000 mg/kg, time 7 day
[13] = Acute toxicity in Kunming mouse assessed as damage in liver at 50 to 1000 mg/kg measured after 7 days; type: organism-based; conditions: in vivo, 168 h, dose 50-1000 mg/kg, time 7 day
[14] = Toxicity in Zebrafish assessed as induction of yolk sac absorption delay at 3.125 ug/ml relative to control; set-up: species or system Danio rerio; conditions: in vivo, at 3.125 µg/mL
[15] = Effect on tau protein level in mouse HT22 cells transfected with pRK5-GFP-Tau P301L plasmid assessed as fluorescence intensity at 20 uM by fluorescence microscopy (reference value: 33.6); type: functional, HT-22
Danio rerio [16] = species on record: Danio rerio; assay: Antialzheimer activity in AlCl3-induced Zebrafish model of Alzheimer's disease assessed as increase in motility speed at 1 ug/ml relative to control; type: functional; conditions: dose 1 µg/ml
[17] = Acute toxicity in Kunming mouse assessed as piloerection at 250 to 1000 mg/kg measured after 4 hrs; type: organism-based; conditions: in vivo, dose 250-1000 mg/kg
[18] = Drug metabolism in rat intestinal flora by HPLC analysis; type: ADME, tissue-based, Intestine
[19] = Toxicity in Zebrafish assessed as slow blood flow at 6.25 ug/ml relative to control; type: tissue-based, Danio rerio; conditions: at 6.25 µg/mL
SH-SY5Y [20] = assay: Neuroprotective activity against amyloid beta (1 to 42)-induced cytotoxicity in human SH-SY5Y cells assessed as cell viability at 10 uM by MTT assay (reference value: 50.3%); type: functional; conditions: read-out: Activity
HT-22 = assay: Down regulation of tau protein expression in mouse HT22 cells transfected with pRK5-GFP-Tau P301L plasmid at 2.5 to 20 uM by Western blot analysis; type: functional, cell-based; conditions: dose 2.5-20 µM
[21] = Toxicity in Zebrafish assessed as induction of kidney edema at 6.25 ug/ml relative to control; set-up: species or system Danio rerio; conditions: in vivo, at 6.25 µg/mL
[22] = Toxicity in AlCl3-induced Zebrafish model of Alzheimer's disease assessed as mortality at 5 ug/ml relative to control; set-up: species or system Danio rerio; conditions: in vivo, at 5 µg/mL
[23] = Effect on spontaneous alteration behavior in mouse assessed as change in total arm entry at 5 to 20 mg/kg by Y-maze test; type: ADME, organism-based; conditions: in vivo, dose 5-20 mg/kg
[24] = Toxicity in Zebrafish assessed as small or misshapen eyes at 6.25 ug/ml relative to control; set-up: species or system Danio rerio; conditions: in vivo, at 6.25 µg/mL
[25] = target: T2, Amine oxidase [flavin-containing] B (Homo sapiens, UniProt P27338); assay: Inhibition of recombinant human MAO-B
T2 sequence (P27338 whole entry): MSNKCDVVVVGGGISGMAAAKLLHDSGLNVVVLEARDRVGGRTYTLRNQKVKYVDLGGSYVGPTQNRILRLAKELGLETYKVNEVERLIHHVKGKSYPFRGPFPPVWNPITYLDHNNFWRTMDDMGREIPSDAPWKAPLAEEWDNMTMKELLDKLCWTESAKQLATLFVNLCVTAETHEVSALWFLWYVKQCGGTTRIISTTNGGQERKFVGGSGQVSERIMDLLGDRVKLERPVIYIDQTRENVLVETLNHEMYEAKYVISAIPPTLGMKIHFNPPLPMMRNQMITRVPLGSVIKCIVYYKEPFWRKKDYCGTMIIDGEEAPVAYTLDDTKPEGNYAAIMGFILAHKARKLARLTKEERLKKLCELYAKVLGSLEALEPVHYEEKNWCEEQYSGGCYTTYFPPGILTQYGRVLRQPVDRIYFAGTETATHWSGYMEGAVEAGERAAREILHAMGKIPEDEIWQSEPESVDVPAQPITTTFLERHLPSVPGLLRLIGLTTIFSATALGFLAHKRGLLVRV

Cholinesterase [26] = target: T1, Cholinesterase; assay: Inhibition of human serum BuChE assessed as residual activity at IC50 using acetylcholine iodide as substrate measured by Ellman's method relative to control
[27] = Toxicity in Zebrafish assessed as effect on kidney at 6.25 ug/ml relative to control; set-up: species or system Danio rerio; conditions: in vivo, at 6.25 µg/mL
Cholinesterase [28] = target: T1, Cholinesterase; assay: Inhibition of human serum BuChE assessed as residual activity at 0.1 times IC50 using acetylcholine iodide as substrate measured after dilution by Ellman's method relative to control
Danio rerio [29] = species on record: Danio rerio; assay: Protection against amyloid beta (1 to 42)-induced zebrafish model of vascular injury assessed as vascular injury rate at 1 ug/ml (reference value: 73.3%); type: functional; conditions: dose 1 µg/ml
SH-SY5Y [30] = assay: Neuroprotective activity against amyloid beta (1 to 42)-induced cytotoxicity in human SH-SY5Y cells assessed as cell viability at 1 uM by MTT assay (reference value: 50.3%); type: functional; conditions: read-out: Activity
[31] = Selectivity index, ratio of IC50 for Electrophorus electricus AChE to IC50 for equine serum BuChE
[32] = Toxicity in AlCl3-induced Zebrafish model of Alzheimer's disease assessed as mortality at 1 ug/ml relative to control; set-up: species or system Danio rerio; conditions: in vivo, at 1 µg/mL

T1 sequence (P06276 whole entry): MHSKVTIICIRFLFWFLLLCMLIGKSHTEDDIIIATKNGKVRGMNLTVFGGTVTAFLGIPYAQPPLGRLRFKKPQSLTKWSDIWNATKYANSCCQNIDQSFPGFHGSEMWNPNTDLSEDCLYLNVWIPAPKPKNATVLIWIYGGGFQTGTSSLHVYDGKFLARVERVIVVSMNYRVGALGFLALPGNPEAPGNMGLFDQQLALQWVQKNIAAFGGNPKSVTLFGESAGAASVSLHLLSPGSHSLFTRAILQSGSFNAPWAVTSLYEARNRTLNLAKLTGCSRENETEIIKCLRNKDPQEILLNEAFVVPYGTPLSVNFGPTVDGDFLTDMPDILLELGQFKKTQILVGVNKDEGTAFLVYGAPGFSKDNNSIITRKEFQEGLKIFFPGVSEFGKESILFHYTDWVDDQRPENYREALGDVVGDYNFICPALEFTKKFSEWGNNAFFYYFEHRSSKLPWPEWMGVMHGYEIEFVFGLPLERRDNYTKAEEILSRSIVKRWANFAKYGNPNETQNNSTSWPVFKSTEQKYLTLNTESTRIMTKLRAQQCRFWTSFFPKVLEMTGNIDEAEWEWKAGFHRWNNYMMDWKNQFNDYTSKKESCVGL

CCN(C)C(=O)Oc1ccc(/C=C/C(=O)N2CCc3ccccc3C2)cc1OC
Efficacy (Danio rerio [1]): 79%
Activity (Danio rerio [2]): 6763 mm
IC50 (Cholinesterase [3]): 0.97 µM
Activity (Danio rerio [4]): 7024 mm
Drug metabolism [5]: Metabolite_Detected
Flu intensity [6]: 13.6
Ratio IC50 (Homo sapiens): 10.9
viability at 50 µM [7]: 46.9%
Flu intensity [8]: 29.8
Activity (Danio rerio [9]): 1.79 millimeter/sec
Flu intensity [10]: 23.9
Activity [11]: Non-Toxic
Activity [12]: Non-Toxic
Activity [13]: Non-Toxic
Activity [14]: 40%
Flu intensity [15]: 17.9
Efficacy (Danio rerio [16]): 86.3%
Activity [17]: Non-Toxic
Drug metabolism [18]: Metabolite_Detected
Activity [19]: 16.7%
viability at 10 µM (SH-SY5Y [20]): 83.8%
Activity (HT-22): Active
Activity [21]: 33.3%
mortality at 5 ug/ml [22]: 0%
Activity [23]: Non-Toxic
Activity [24]: 26.7%
IC50 [25]: 5.3 µM
Activity (Cholinesterase [26]): 53.2%
Activity [27]: 23.3%
Activity (Cholinesterase [28]): 47.1%
Activity (Danio rerio [29]): 53.3%
viability at 1 µM (SH-SY5Y [30]): 68.1%
Ratio IC50 [31]: 12.3
mortality at 1 ug/ml [32]: 0%
